Counter-ions that a name gives are not always drawn.

One data set has as its system MV4-11 cells. Nature of the data set: MV4-11 Cytotoxicity Assay. The format is cell-based, human. Particulars: 72 hr, CCK-8; read-out: MV4-11 cytotoxicity.
On to `CCn1c(=O)/c(=C2\Sc3ccccc3N2C)s/c1=C\c1cccc[n+]1CCNC(=O)C[C@@H]1N=C(c2ccc(Cl)cc2)c2c(sc(C)c2C)-n2c(C)nnc21` [Compound 8], for which the IC50 was over 1000 nM.
Take `CC[C@@H](C)Nc1cc(C(=O)NC2C[C@H]3CC[C@H](C2)N3c2ccc(C(=O)c3ccc(CN4CCN(CC5CCN(C(=O)C[C@@H]6N=C(c7ccc(Cl)cc7)c7c(sc(C)c7C)-n7c(C)nnc76)CC5)CC4)cc3)cn2)c(C)cc1C(N)=O` (some centres unmarked) [Compound 25]: the IC50 was in the range of 100 to 1000 nM.

Staying with this data set, now noted: Homo sapiens, MV4-11, 72 h, read-out: MV4-11 cytotoxicity.
Consider `CCc1cc(-c2nnc(C(=O)NCC(F)(F)F)n2-c2ccc(CN3CCN(CC4CCN(C(=O)C[C@@H]5N=C(c6ccc(Cl)cc6)c6c(sc(C)c6C)-n6c(C)nnc65)CC4)CC3)cc2)c(O)cc1O` [Compound 14, 4-(4-((4-((1-(2-((6S)-4-(4-chlorophenyl)-2,3,9-trimethyl-6H-thieno[3,2-f][1,2,4]triazolo[4,3-a][1,4]diazepin-6-yl)acetyl)piperidin-4-yl)methyl)piperazin-1-yl)methyl)phenyl)-5-(5-ethyl-2,4-dihydroxyphenyl)-N-(2,2,2-trifluoroethyl)-4H-1,2,4-triazole-3-carboxamide, trifluoroacetic acid], for which the IC50 was under 100 nM.

Staying with this data set, now noted: Homo sapiens, MV4-11; 72 hr, CCK-8; read-out: MV4-11 cytotoxicity.
In the case of `Cc1sc2c(c1C)C(c1ccc(Cl)cc1)=NC(CC(=O)N[C@H](C)c1ccc(CN3CCN(Cc4ccc(-n5c(O)nnc5-c5cc(C(C)C)c(O)cc5O)cc4)CC3)cc1)c1nnc(C)n1-2` (stereo in doubt) [Compound 70, 2-((6S)-4-(4-chlorophenyl)-2,3,9-trimethyl-6H-thieno[3,2-f][1,2,4]triazolo[4,3-a][1,4]diazepin-6-yl)-N—((R)-1-(4-((4-(4-(3-(2,4-dihydroxy-5-isopropylphenyl)-5-hydroxy-4H-1,2,4-triazol-4-yl)benzyl)piperazin-1-yl)methyl)phenyl)ethyl)acetamide, trifluoroacetic acid], the IC50 was under 100 nM.
As for `Cc1sc2c(c1C)C(c1ccc(Cl)cc1)=NC(CC(=O)N1CCC(Cc3ccc(CN(C)Cc4ccc(-n5c(C(=O)NCC(F)(F)F)nnc5-c5cc(C(C)C)c(O)cc5O)cc4)cc3)CC1)c1nnc(C)n1-2` (stereo in doubt) [Compound 84, (S)-4-(4-(((4-((1-(2-(4-(4-chlorophenyl)-2,3,9-trimethyl-6H-thieno[3,2-f][1,2,4]triazolo[4,3-a][1,4]diazepin-6-yl)acetyl)piperidin-4-yl)methyl)benzyl)(methyl)amino)methyl)phenyl)-5-(2,4-dihydroxy-5-isopropylphenyl)-N-(2,2,2-trifluoroethyl)-4H-1,2,4-triazole-3-carboxamide, trifluoroacetic acid], the IC50 is under 100 nM.
With `CCc1cc(-c2nnc(O)n2-c2ccc(CN3CCN(CC4CCN(CC[C@@H]5N=C(c6ccc(Cl)cc6)c6c(sc(C)c6C)-n6c(C)nnc65)CC4)CC3)cc2)c(O)cc1O` [Compound 2, 4-(4-(4-((4-((1-(2-((6S)-4-(4-chlorophenyl)-2,3,9-trimethyl-6H-thieno[3,2-f][1,2,4]triazolo[4,3-a][1,4]diazepin-6-yl)ethyl)piperidin-4-yl)methyl)piperazin-1-yl)methyl)phenyl)-5-hydroxy-4H-1,2,4-triazol-3-yl)-6-ethylbenzene-1,3-diol, trifluoroacetic acid], the IC50 lay in the range of 100 to 1000 nM.
With `Cc1sc2c(c1C)C(c1ccc(Cl)cc1)=N[C@@H](CC(=O)N1CCC(Cc3ccc(-n4c(O)nnc4-c4cc(C(C)C)c(O)cc4O)cc3)CC1)c1nnc(C)n1-2` [Compound 3, 2-((6S)-4-(4-chlorophenyl)-2,3,9-trimethyl-6H-thieno[3,2-f][1,2,4]triazolo[4,3-a][1,4]diazepin-6-yl)-1-(4-(4-(3-(2,4-dihydroxy-5-isopropylphenyl)-5-hydroxy-4H-1,2,4-triazol-4-yl)benzyl)piperidin-1-yl)ethanone, trifluoroacetic acid], the IC50 is under 100 nM.
In the case of `Cc1sc2c(c1C)C(c1ccc(Cl)cc1)=N[C@@H](CC(=O)N1CCC(CN3CCN(Cc4ccc(-n5c(O)nnc5-c5ccc(O)cc5O)cc4)CC3)CC1)c1nnc(C)n1-2` [Compound 4, 2-((6S)-4-(4-chlorophenyl)-2,3,9-trimethyl-6H-thieno[3,2-f][1,2,4]triazolo[4,3-a][1,4]diazepin-6-yl)-1-(4-((4-(4-(3-(2,4-dihydroxyphenyl)-5-hydroxy-4H-1,2,4-triazol-4-yl)benzyl)piperazin-1-yl)methyl)piperidin-1-yl)ethanone, trifluoroacetic acid], the IC50 fell in the range of 100 to 1000 nM.
Consider `CCc1cc(-c2nnc(O)n2-c2ccc(CN3CCN(CC4CCN(C(=O)C[C@@H]5N=C(c6ccc(Cl)cc6)c6c(sc(C)c6C)-n6c(C)nnc65)CC4)CC3)cc2)c(O)cc1O` [Compound 10, (S)-2-(4-(4-chlorophenyl)-2,3,9-trimethyl-6H-thieno[3,2-f][1,2,4]triazolo[4,3-a][1,4]diazepin-6-yl)-1-(4-((4-(4-(3-(5-ethyl-2,4-dihydroxyphenyl)-5-hydroxy-4H-1,2,4-triazol-4-yl)benzyl)piperazin-1-yl)methyl)piperidin-1-yl)ethan-1-one hydrochloride], for which the IC50 is under 100 nM.
On to `CCCc1cc(-c2nnc(O)n2-c2ccc(CN3CCN(CC4CCN(C(=O)C[C@@H]5N=C(c6ccc(Cl)cc6)c6c(sc(C)c6C)-n6c(C)nnc65)CC4)CC3)cc2)c(O)cc1O` [Compound 11, (S)-2-(4-(4-chlorophenyl)-2,3,9-trimethyl-6H-thieno[3,2-f][1,2,4]triazolo[4,3-a][1,4]diazepin-6-yl)-1-(4-((4-(4-(3-(2,4-dihydroxy-5-propylphenyl)-5-hydroxy-4H-1,2,4-triazol-4-yl)benzyl)piperazin-1-yl)methyl)piperidin-1-yl)ethan-1-one, trifluoroacetic acid], for which the IC50 is under 100 nM.
`Cc1sc2c(c1C)C(c1ccc(Cl)cc1)=N[C@@H](CC(=O)N1CCC(CN3CCN(Cc4ccc(-n5c(S)nnc5-c5cc(C(C)C)c(O)cc5O)cc4)CC3)CC1)c1nnc(C)n1-2` [Compound 12, 2-((6S)-4-(4-chlorophenyl)-2,3,9-trimethyl-6H-thieno[3,2-f][1,2,4]triazolo[4,3-a][1,4]diazepin-6-yl)-1-(4-((4-(4-(3-(2,4-dihydroxy-5-isopropylphenyl)-5-mercapto-4H-1,2,4-triazol-4-yl)benzyl)piperazin-1-yl)methyl)piperidin-1-yl)ethanone, trifluoroacetic acid]: the IC50 is under 100 nM.
In the case of `Cc1sc2c(c1C)C(c1ccc(Cl)cc1)=N[C@@H](CC(=O)N1CCC(CN3CCN(Cc4ccc(-n5c(C(=O)NCC(F)(F)F)nnc5-c5cc(C(C)C)c(O)cc5O)cc4)CC3)CC1)c1nnc(C)n1-2` [Compound 13, 4-(4-((4-((1-(2-((6S)-4-(4-chlorophenyl)-2,3,9-trimethyl-6H-thieno[3,2-f][1,2,4]triazolo[4,3-a][1,4]diazepin-6-yl)acetyl)piperidin-4-yl)methyl)piperazin-1-yl)methyl)phenyl)-5-(2,4-dihydroxy-5-isopropylphenyl)-N-(2,2,2-trifluoroethyl)-4H-1,2,4-triazole-3-carboxamide], the IC50 was under 100 nM.
On to `Cc1cc(-c2nnc(C(=O)NCC(F)(F)F)n2-c2ccc(CN3CCN(CC4CCN(C(=O)C[C@@H]5N=C(c6ccc(Cl)cc6)c6c(sc(C)c6C)-n6c(C)nnc65)CC4)CC3)cc2)c(O)cc1O` [Compound 15, 4-(4-((4-((1-(2-((6S)-4-(4-chlorophenyl)-2,3,9-trimethyl-6H-thieno[3,2-f][1,2,4]triazolo[4,3-a][1,4]diazepin-6-yl)acetyl)piperidin-4-yl)methyl)piperazin-1-yl)methyl)phenyl)-5-(2,4-dihydroxy-5-methylphenyl)-N-(2,2,2-trifluoroethyl)-4H-1,2,4-triazole-3-carboxamide, trifluoroacetic acid], for which the IC50 was under 100 nM.
`Cc1sc2c(c1C)C(c1ccc(Cl)cc1)=N[C@@H](CC(=O)N1CCC(CN3CCN(Cc4ccc(-n5c(O)nnc5-c5cc(C(C)C)c(O)cc5O)cc4F)CC3)CC1)c1nnc(C)n1-2` [Compound 17, (S)-2-(4-(4-chlorophenyl)-2,3,9-trimethyl-6H-thieno[3,2-f][1,2,4]triazolo[4,3-a][1,4]diazepin-6-yl)-1-(4-((4-(4-(3-(2,4-dihydroxy-5-isopropylphenyl)-5-hydroxy-4H-1,2,4-triazol-4-yl)-2-fluorobenzyl)piperazin-1-yl)methyl)piperidin-1-yl)ethan-1-one, trifluoroacetic acid]: the IC50 is under 100 nM.
Regarding `Cc1sc2c(c1C)C(c1ccc(Cl)cc1)=N[C@@H](CC(=O)NCc1ccc(-n3c(S)nnc3-c3cc(C(C)C)c(O)cc3O)cc1)c1nnc(C)n1-2` [Compound 28, (S)-2-(4-(4-chlorophenyl)-2,3,9-trimethyl-6H-thieno[3,2-f][1,2,4]triazolo[4,3-a][1,4]diazepin-6-yl)-N-(4-(3-(2,4-dihydroxy-5-isopropylphenyl)-5-mercapto-4H-1,2,4-triazol-4-yl)benzyl)acetamide], the IC50 was 100 to 1000 nM.
In the case of `Cc1sc2c(c1C)C(c1ccc(Cl)cc1)=N[C@@H](CC(=O)N1CCN(C(=O)C3CCN(c4ccc(-n5c(O)nnc5-c5cc(C(C)C)c(O)cc5O)cc4)CC3)CC1)c1nnc(C)n1-2` [Compound 29, (S)-2-(4-(4-chlorophenyl)-2,3,9-trimethyl-6H-thieno[3,2-f][1,2,4]triazolo[4,3-a][1,4]diazepin-6-yl)-1-(4-(1-(4-(3-(2,4-dihydroxy-5-isopropylphenyl)-5-hydroxy-4H-1,2,4-triazol-4-yl)phenyl)piperidine-4-carbonyl)piperazin-1-yl)ethan-1-one], the IC50 fell in the range of 100 to 1000 nM.
With `Cc1sc2c(c1C)C(c1ccc(Cl)cc1)=N[C@@H](CC(=O)NCCOc1ccc(-n3c(S)nnc3-c3cc(C(C)C)c(O)cc3O)cc1)c1nnc(C)n1-2` [Compound 32, (S)-2-(4-(4-chlorophenyl)-2,3,9-trimethyl-6H-thieno[3,2-f][1,2,4]triazolo[4,3-a][1,4]diazepin-6-yl)-N-(2-(4-(3-(2,4-dihydroxy-5-isopropylphenyl)-5-mercapto-4H-1,2,4-triazol-4-yl)phenoxy)ethyl)acetamide], the IC50 lay within 100 to 1000 nM.

The values above are taken from patent US12540143B2, “Methods and compositions for targeted protein degradation” (Ranok Therapeutics (Hangzhou) Co. Ltd., priority 2019, dated 2026).
